Experimental data: PMC7721897, “Metabolism and pharmacokinetics of a novel polyphenol fatty acid ester phloridzin docosahexaenoate in Balb/c female mice” (Scientific Reports, 2020)
Read-outs that look alike come from different tables or passages of the source.

How the values were obtained:
[1] = tested on: mammary carcinoma cells and mammary epithelial cells; assay: Cellular uptake assay, all cell lines together; assay type: cell-based, human and mouse; settings: 72 h, 20 μM
Protocol: Figure 1 Conjugation of PZ with DHA increases the cellular uptake and stability of PZ and DHA. The cells were treated with 20 μM of PZ, DHA or PZ-DHA and cultured for 72 h at 37 °C. Cells were harvested and washed thoroughly using cold PBS. Cells were lysed in cold acetone containing 0.05 mg/mL quercetin, and cell lysates were collected by centrifugation and analyzed by using UPLC-ESI-MS/MS. (A) mean % cellular uptake of PZ, DHA and PZ-DHA. (B) fold increase in intracellular PZ and DHA when conjugated. ANOVA multiple means statistical comparison method was performed and differences among means were compared using Tukey’s test; *p < 0.05. (MDA-MB-231 p = 0.008; MDA-MB-468 p = 0.01; 4T1 p = 0.02; MCF-7 p = 0.01; MCF-10A p = 0.0005).
Cells were seeded at a density of 3 × 10^5 cells (MDA-MB-231, MDA-MB-468, MCF-7, and MCF-10A) or 1 × 10^5 cells (4T1) /T-75 flask. The cells were cultured overnight to promote cell adhesion. Adherent cells were treated with a sub-cytotoxic concentration (20 μM) of PZ, DHA or PZ-DHA and cultured for 72 h at 37 °C. The supernatant was carefully removed, and cell monolayers were washed with cold PBS. Cells were harvested using TrypLE Express and washed thoroughly with cold PBS. The cell pellet was resuspended in 3 mL of cold acetone containing 0.05 mg/mL quercetin as the internal standard, and incubated overnight at 4 °C. Cell lysates were collected by centrifugation at 14,000×g for 15 min at 4 °C and samples were concentrated by evaporating acetone under a stream of nitrogen gas. Dry pellets were reconstituted in methanol and filtered. The sample was analyzed using a UPLC/ESI/MS system. The percentage cell uptake of the total dose was quantified using standard curves of PZ (R^2 = 0.99), DHA (R^2 = 0.98) or PZ-DHA (R^2 = 0.99) made in methanol.
PZ-DHA and/or PZ-DHA metabolites in malignant/non-malignant epithelial cell lysates, in vitro microsome enzyme reaction mixtures, and mouse serum aliquots were determined using UPLC-ESI–MS/MS instrument (Waters Limited, Mississauga, ON, Canada). All mass spectroscopic analyses were performed using mass scan (full-scan, identification of unknowns) and single ion monitoring (SIM; quantification of PZ, DHA, PZ-DHA, and quercetin) modes of a Waters H-class UPLC separations module coupled with a Micromass Quattro micro API MS/MS system and MassLynx V4.0 control software. An Allure biphenyl column (100 mm × 2.1 mm, 1.8 μm, Restek Pure Chromatography, Bellefonte, PA, USA) and a flow rate of 0.3 mL/min were employed. ESI- mode with a capillary voltage of 3000 V and a nebulizer gas (N2) temperature of 375 °C were used. A volume of 2 µL sample was injected.

[2] = Tissue distribution of PZ-DHA and metabolites after intraperitoneal injection; assay type: in vivo, Balb/c female mice; settings: female, Balb/c, mouse, intraperitoneal, 100 mg/kg
Protocol: Figure 5 PZ-DHA and metabolites were detected in various organs of PZ-DHA-treated Balb/c female mice. PZ-DHA (100 mg/kg) was administered by intraperitoneal injection to Balb/c female mice and liver, lungs, kidneys, spleen and brain were harvested. Organs were homogenized and PZ-DHA in (A) liver, kidneys, lungs, spleen, and brain was identified and quantified using a calibration curve. The abundance of (B) 4,4′,6′-tri-O-methyl-phloridzin docosahexaenoate in liver, kidneys, lungs, and serum) and (C) phloridzin docosahexaenoate-4,4′-di-O-sulphide in the liver was determined in PZ-DHA equivalence.
Pharmacokinetic parameters and in vivo generation of PZ-DHA metabolites were studied using Balb/c female mice. Mice were randomly divided into six groups (n = 4/group) and PZ-DHA (100 mg/kg) was administered by intraperitoneal injection. For each mouse, a single blood collection was performed by cardiac puncture at one of six different time points (t = 15, 30, 60, 90, 120, and 240 min). At the end of blood collection, mice were euthanized by cervical dislocation and organs (liver, lungs, kidneys, spleen, and brain) were harvested. Blood samples were allowed to clot by leaving undisturbed at room temperature for 1 h, and serum was separated by centrifuging at 2000×g for 10 min at 4 °C. The serum was carefully removed and stored on ice until further processing. Serum proteins were precipitated by incubating an aliquot of serum with a mixture of acetonitrile:acetone (80:20) containing 0.1 mg/mL quercetin (internal standard) at 4 °C overnight. The supernatant was separated by centrifuging at 14,000×g for 10 min at 4 °C. Excess solvent was evaporated using nitrogen flush and mixed with methanol and filtered. PZ-DHA-metabolites in the filtrate were identified using a UPLC-ESI–MS/MS (Waters Limited, Mississauga, ON, Canada). Organs were homogenized in PBS (1:5 w/v). Supernatants were collected by centrifugation at 14,000 × g for 15 min at 4 °C. Proteins were precipitated by incubating in acetonitrile:acetone (80:20) containing 0.1 mg/mL quercetin (internal standard) at 4 °C overnight. Supernatants were treated as explained above, and PZ-DHA and/or PZ-DHA-metabolites were identified.

[3] = parameters: method as in PMID 31473253; settings: 100 mg/kg body weight via intraperitoneal injections; cited from earlier work
[4] = tested on: mammary carcinoma cells, including MDA-MB-231 and 4T1; parameters: method as in PMID 31473253; settings: 20 µM for PZ-DHA; cited from earlier work
[5] = tested on: mammary carcinoma cells (MDA-MB-231, MDA-MB-468, 4T1, MCF-7) and MCF-10A; parameters: method as in PMID 27535497; settings: cited from earlier work
[6] = brain/serum, read-out: Tissue/serum ratio of PZ-DHA (Mean ± SD) Brain/serum
[7] = kidneys/serum, read-out: Tissue/serum ratio of PZ-DHA (Mean ± SD) Kidneys/serum
[8] = liver/serum, read-out: Tissue/serum ratio of PZ-DHA (Mean ± SD) Liver/serum
[9] = lungs/serum, read-out: Tissue/serum ratio of PZ-DHA (Mean ± SD) Lungs/serum
[10] = spleen/serum, read-out: Tissue/serum ratio of PZ-DHA (Mean ± SD) Spleen/serum

## CC/C=C\C/C=C\C/C=C\C/C=C\C/C=C\C/C=C\CCC(=O)OC[C@H]1O[C@@H](Oc2cc(O)cc(O)c2C(=O)CCc2ccc(O)cc2)[C@H](O)[C@@H](O)[C@@H]1O [PZ-DHA, phloridzin docosahexaenoate]
[1]
  abundance in cells throughout the experimental period: stable abundance
[1]; all cell lines
  cellular uptake (as a % of the dose), in words: significantly higher than that of PZ or DHA
[2]; [6]
  Kp at 15 min: 0.51 ± 0.17
  Kp at 30 min: 0.64 ± 0.11
  Kp at 60 min: 0.95 ± 0.68
  Kp at 90 min: 1.01 ± 0.19
  Kp at 120 min: 1.31 ± 0.67
  Kp at 240 min: 1.94 ± 0.75
[2]; [7]
  Kp at 15 min: 0.66 ± 0.03
  Kp at 30 min: 1.29 ± 0.22
  Kp at 60 min: 0.81 ± 0.34
  Kp at 90 min: 0.89 ± 0.26
  Kp at 120 min: 2.71 ± 1.41
  Kp at 240 min: 2.71 ± 1.08
[2]; [8]
  Kp at 15 min: 0.14 ± 0.06
  Kp at 30 min: 0.16 ± 0.08
  Kp at 60 min: 4.68 ± 2.02
  Kp at 90 min: 2.69 ± 2.17
  Kp at 120 min: 1.03 ± 0.73
  Kp at 240 min: 0.99 ± 0.23
[2]; [9]
  Kp at 15 min: 3.33 ± 1.51
  Kp at 30 min: 2.04 ± 1.09
  Kp at 60 min: 1.05 ± 0.014
  Kp at 90 min: 3.51 ± 2.44
  Kp at 120 min: 3.82 ± 1.74
  Kp at 240 min: 4.97 ± 1.37
[2]; [10]
  Kp at 15 min: 3.29 ± 1.56
  Kp at 30 min: 3.17 ± 0.72
  Kp at 60 min: 4.18 ± 1.01
  Kp at 90 min: 5.24 ± 1.75
  Kp at 120 min: 10.9 ± 8.42
  Kp at 240 min: 16.1 ± 5.98
[3]
  liver or kidney toxicity: does not show liver or kidney toxicity
[4]
  migration and invasion of mammary carcinoma cells: significantly inhibits
[5]
  selective cytotoxicity, malignant versus non-malignant cells: selectively kills mammary carcinoma cells
